Assay results published in article PMC11995724, “Antibiotic target discovery by integrated phenotypic and activity-based profiling of electrophilic fragments” (Cell chemical biology, 2025).

Experiment: in vitro
Settings: human, hek293t cells

**Q.** For `Cc1cc(C)c(NC(=O)C(C#N)=Cc2ccc(C)o2)c(C)c1` [9-I17, 2-cyano-3-(5-methylfuran-2-yl)-N-(2,4,6-trimethylphenyl)prop-2-enamide], which viability at 48 h, 25 µM is on record?
**A.** Its viability at 48 h, 25 µM is 94.3%.

**Q.** Which viability at 48 h, 25 µM does the source give for `CC1=C(C#N)C(=O)N(C)C(=O)C1=Cc1ccc(-c2ccc(F)cc2)o1` [9-I18, 5-{[5-(4-fluorophenyl)furan-2-yl]methylidene}-1,4-dimethyl-2,6-dioxo-1,2,5,6-tetrahydropyridine-3-carbonitrile] here?
**A.** The viability at 48 h, 25 µM was 125%.

**Q.** With `Cc1cccc(C=C(C#N)C(=O)Nc2ccc(F)cc2)c1` [9-I19, 2-cyano-N-(4-fluorophenyl)-3-(3-methylphenyl)prop-2-enamide] as the molecule, how does the viability at 48 h, 25 µM read?
**A.** The viability at 48 h, 25 µM was 113%.

**Q.** Which viability at 48 h, 25 µM does the source give for `N#CC(=Cc1c(F)cccc1F)C(=O)Nc1ccccc1Cl` [9-I20, N-(2-chlorophenyl)-2-cyano-3-(2,6-difluorophenyl)prop-2-enamide] here?
**A.** Its viability at 48 h, 25 µM is 114%.

**Q.** With `CC(C)(C)c1ccc(C=C(C#N)C(=O)Nc2ccc(C(=O)O)cc2)cc1` [9-I21, 4-[3-(4-tert-butylphenyl)-2-cyanoprop-2-enamido]benzoic acid] as the molecule, how does the viability at 48 h, 25 µM read?
**A.** Its viability at 48 h, 25 µM is 128%.

**Q.** With `Cc1ccccc1NC(=O)C(C#N)=Cc1c(Cl)nc2ccccn12` [9-I22, 3-{2-chloroimidazo[1,2-a]pyridin-3-yl}-2-cyano-N-(2-methylphenyl)prop-2-enamide] as the molecule, how does the viability at 48 h, 25 µM read?
**A.** The viability at 48 h, 25 µM was 134%.

**Q.** Which viability at 48 h, 25 µM does the source give for `COc1cc(C=C(C#N)C(=O)Nc2nccs2)cc(OC)c1` [9-J03, 2-cyano-3-(3,5-dimethoxyphenyl)-N-(1,3-thiazol-2-yl)prop-2-enamide] here?
**A.** Its viability at 48 h, 25 µM is 104%.

**Q.** Which viability at 48 h, 25 µM does the source give for `CC(NC(=O)C(C#N)=Cc1ccco1)c1cccc(-n2cccn2)c1` (centres unmarked) [9-J04, 2-cyano-3-(furan-2-yl)-N-{1-[3-(1H-pyrazol-1-yl)phenyl]ethyl}prop-2-enamide] here?
**A.** Its viability at 48 h, 25 µM is 95.9%.

**Q.** Which viability at 48 h, 25 µM does the source give for `Cc1ccc(C=C(C#N)C(=O)Nc2cccc3ncccc23)cc1` [9-J05, 2-cyano-3-(4-methylphenyl)-N-(quinolin-5-yl)prop-2-enamide] here?
**A.** The viability at 48 h, 25 µM was 123%.

**Q.** Which viability at 48 h, 25 µM does the source give for `CCCCNC(=O)C(C#N)=Cc1ccc(C)s1` [9-J06, N-butyl-2-cyano-3-(5-methylthiophen-2-yl)prop-2-enamide] here?
**A.** Its viability at 48 h, 25 µM is 94.4%.

**Q.** Which viability at 48 h, 25 µM does the source give for `CC(=Cc1ccccc1)C=C(C#N)C(=O)Nc1ccc2c(c1)OCCO2` [9-J07, 2-cyano-N-(2,3-dihydro-1,4-benzodioxin-6-yl)-4-methyl-5-phenylpenta-2,4-dienamide] here?
**A.** The viability at 48 h, 25 µM was 79.5%.

**Q.** Which viability at 48 h, 25 µM does the source give for `C=CCNC(=O)C(C#N)=CC=Cc1ccccc1` [9-J08, 2-cyano-5-phenyl-N-(prop-2-en-1-yl)penta-2,4-dienamide] here?
**A.** Its viability at 48 h, 25 µM is 96.5%.

**Q.** Which viability at 48 h, 25 µM does the source give for `CC1CN(c2ccc(NC(=O)C(C#N)=Cc3ccco3)cc2)CC(C)O1` (centres unmarked) [9-J09, 2-cyano-N-[4-(2,6-dimethylmorpholin-4-yl)phenyl]-3-(furan-2-yl)prop-2-enamide] here?
**A.** Its viability at 48 h, 25 µM is 109%.

**Q.** With `N#CC(=Cc1coc2ccccc2c1=O)C(=O)NCCc1ccccc1` [9-J10, 2-cyano-3-(4-oxo-4H-chromen-3-yl)-N-(2-phenylethyl)prop-2-enamide] as the molecule, how does the viability at 48 h, 25 µM read?
**A.** Its viability at 48 h, 25 µM is 107%.

**Q.** With `CCCCNC(=O)C(C#N)=Cc1c(Cl)cccc1Cl` [9-J11, N-butyl-2-cyano-3-(2,6-dichlorophenyl)prop-2-enamide] as the molecule, how does the viability at 48 h, 25 µM read?
**A.** The viability at 48 h, 25 µM was 25.1%.

**Q.** Which viability at 48 h, 25 µM does the source give for `N#CC(=Cc1c(F)cccc1F)C(=O)Nc1ccccc1F` [9-J12, 2-cyano-3-(2,6-difluorophenyl)-N-(2-fluorophenyl)prop-2-enamide] here?
**A.** Its viability at 48 h, 25 µM is 103%.

**Q.** Which viability at 48 h, 25 µM does the source give for `CC(C)NC(=O)C(C#N)=Cc1cccc(C(F)(F)F)c1` [9-J13, 2-cyano-N-(propan-2-yl)-3-[3-(trifluoromethyl)phenyl]prop-2-enamide] here?
**A.** The viability at 48 h, 25 µM was 33.9%.

**Q.** Which viability at 48 h, 25 µM does the source give for `Cc1cc(C=C(C#N)C(=O)Nc2nccs2)ccc1-n1cncn1` [9-J14, 2-cyano-3-[3-methyl-4-(1H-1,2,4-triazol-1-yl)phenyl]-N-(1,3-thiazol-2-yl)prop-2-enamide] here?
**A.** The viability at 48 h, 25 µM was 104%.

**Q.** For `Cc1cc(-n2c(C)cc(C=C(C#N)C(=O)NC3CCCC3)c2C)no1` [9-J15, 2-cyano-N-cyclopentyl-3-[2,5-dimethyl-1-(5-methyl-1,2-oxazol-3-yl)-1H-pyrrol-3-yl]prop-2-enamide], which viability at 48 h, 25 µM is on record?
**A.** Its viability at 48 h, 25 µM is 91.8%.

**Q.** With `Cc1ncsc1C=C(C#N)C(=O)Nc1ccc(C(=O)N(C)C)cc1` [9-J16, 4-[2-cyano-3-(4-methyl-1,3-thiazol-5-yl)prop-2-enamido]-N,N-dimethylbenzamide] as the molecule, how does the viability at 48 h, 25 µM read?
**A.** The viability at 48 h, 25 µM was 118%.

**Q.** For `Cc1nn(-c2ccccc2)c(Cl)c1C=C(C#N)C(=O)NC(C)C` [9-J17, 3-(5-chloro-3-methyl-1-phenyl-1H-pyrazol-4-yl)-2-cyano-N-(propan-2-yl)prop-2-enamide], which viability at 48 h, 25 µM is on record?
**A.** Its viability at 48 h, 25 µM is 98.2%.

**Q.** For `N#CC(=Cc1ccco1)C(=O)NS(=O)(=O)N1CCc2ccccc21` [9-J18, 2-cyano-N-(2,3-dihydro-1H-indole-1-sulfonyl)-3-(furan-2-yl)prop-2-enamide], which viability at 48 h, 25 µM is on record?
**A.** Its viability at 48 h, 25 µM is 116%.

**Q.** With `N#CC(=Cc1ccc2c(c1)OCCO2)C(=O)NC1CCCCC1` [9-J19, 2-cyano-N-cyclohexyl-3-(2,3-dihydro-1,4-benzodioxin-6-yl)prop-2-enamide] as the molecule, how does the viability at 48 h, 25 µM read?
**A.** The viability at 48 h, 25 µM was 118%.

**Q.** Which viability at 48 h, 25 µM does the source give for `CC(C)NC(=O)C(C#N)=Cc1cccc(F)c1F` [9-J20, 2-cyano-3-(2,3-difluorophenyl)-N-(propan-2-yl)prop-2-enamide] here?
**A.** The viability at 48 h, 25 µM was 98%.

**Q.** With `Cc1cc(C=C(C#N)C(=O)Nc2ccccn2)c(C)n1CC(C)C` [9-J21, 2-cyano-3-[2,5-dimethyl-1-(2-methylpropyl)-1H-pyrrol-3-yl]-N-(pyridin-2-yl)prop-2-enamide] as the molecule, how does the viability at 48 h, 25 µM read?
**A.** Its viability at 48 h, 25 µM is 87.2%.

**Q.** Which viability at 48 h, 25 µM does the source give for `N#CC(=Cc1ccc(F)c(F)c1)C(=O)NC1CCCCC1` [9-J22, 2-cyano-N-cyclohexyl-3-(3,4-difluorophenyl)prop-2-enamide] here?
**A.** Its viability at 48 h, 25 µM is 101%.

**Q.** For `CC(NC(=O)C(C#N)=Cc1ccco1)c1cccnc1` (centres unmarked) [9-K03, 2-cyano-3-(furan-2-yl)-N-[1-(pyridin-3-yl)ethyl]prop-2-enamide], which viability at 48 h, 25 µM is on record?
**A.** The viability at 48 h, 25 µM was 129%.

**Q.** For `N#CC(=Cc1ccc(OC(F)F)cc1)C(=O)Nc1cccnc1` [9-K04, 2-cyano-3-[4-(difluoromethoxy)phenyl]-N-(pyridin-3-yl)prop-2-enamide], which viability at 48 h, 25 µM is on record?
**A.** Its viability at 48 h, 25 µM is 115%.

**Q.** For `CCc1nsc(N2CCN(C(=O)C(C#N)=Cc3ccco3)CC2)n1` [9-K05, 2-[4-(3-ethyl-1,2,4-thiadiazol-5-yl)piperazine-1-carbonyl]-3-(furan-2-yl)prop-2-enenitrile], which viability at 48 h, 25 µM is on record?
**A.** The viability at 48 h, 25 µM was 121%.

**Q.** Which viability at 48 h, 25 µM does the source give for `N#CC(=Cc1c(Cl)cccc1Cl)C(=O)NCc1ccco1` [9-K06, 2-cyano-3-(2,6-dichlorophenyl)-N-[(furan-2-yl)methyl]prop-2-enamide] here?
**A.** Its viability at 48 h, 25 µM is 29.2%.

**Q.** With `CC(C)NC(=O)C(C#N)=Cc1ccc(Cl)cc1Cl` [9-K07, 2-cyano-3-(2,4-dichlorophenyl)-N-(propan-2-yl)prop-2-enamide] as the molecule, how does the viability at 48 h, 25 µM read?
**A.** Its viability at 48 h, 25 µM is 49.5%.

**Q.** With `Cc1ccc(C=C(C#N)C(=O)Nc2ccccc2C(=O)O)s1` [9-K08, 2-[2-cyano-3-(5-methylthiophen-2-yl)prop-2-enamido]benzoic acid] as the molecule, how does the viability at 48 h, 25 µM read?
**A.** The viability at 48 h, 25 µM was 104%.

**Q.** For `N#CC(=Cc1cccc(F)c1)C(=O)NCc1ccccc1` [9-K09, N-benzyl-2-cyano-3-(3-fluorophenyl)prop-2-enamide], which viability at 48 h, 25 µM is on record?
**A.** The viability at 48 h, 25 µM was 109%.

**Q.** With `N#CC(=Cc1ccc2ccccc2c1)C(=O)NC(N)=O` [9-K10, {2-cyano-2-[(naphthalen-2-yl)methylidene]acetyl}urea] as the molecule, how does the viability at 48 h, 25 µM read?
**A.** The viability at 48 h, 25 µM was 116%.

**Q.** For `COc1cc(C=C(C#N)C(=O)NC(C)C)cc(Cl)c1O` [9-K11, 3-(3-chloro-4-hydroxy-5-methoxyphenyl)-2-cyano-N-(propan-2-yl)prop-2-enamide], which viability at 48 h, 25 µM is on record?
**A.** Its viability at 48 h, 25 µM is 115%.
